The results in this text go back to ChEMBL document CHEMBL1201862, “PubChem BioAssay data set” (2004).

Test systems include BT-549; CAKI-1; CCRF-CEM; DU-145; HCC 2998; HCT-116; HCT-15; Hs-578T; MDA-MB-231; MOLT-4; NCI-H460; NCI-H522; OVCAR-3; OVCAR-4; RPMI-8226; SK-MEL-5; SR; TK-10; UACC-62; NCI/ADR-RES.
What all share (experiment): growth of human tumour cells (NCI), 48 h

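Five concentrations, 48 hours, 96-well plates. GI50 is the concentration that inhibits growth by half.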 Active and inactive are the calls of the source. Cut-off read from the data, not from the text of the source: active = GI50 up to about 1.1 µM and inactive = higher.

Consider `C#Cc1cccc(N2C(=O)CCC2=O)c1`, for which the GI50 is > 10 µM (inactive) with BT-549; 13.6 µM (inactive) in the test with CAKI-1; 1.56 µM (inactive) in the test with CCRF-CEM; 14.4 µM (inactive) in the test on DU-145; 15 µM (inactive) with HCC 2998; 9.08 µM (inactive) in the test on HCT-116. Also, the GI50 was 22.1 µM in the test with HCT-15; 17.3 µM (inactive) in the test on Hs-578T; 12.2 µM (inactive) with MDA-MB-231; 2.77 µM (inactive) in the test with MOLT-4; 27.5 µM (inactive) in the test on NCI-H460; 4.17 µM (inactive) in the test on NCI-H522. The GI50 in the test with OVCAR-3 was 18.9 µM (inactive); in the test on OVCAR-4 it was 13.1 µM (inactive); with RPMI-8226, 2.49 µM (inactive); in the test with SK-MEL-5, 20.5 µM (inactive); with SR, 1.74 µM (inactive); with TK-10, 16.2 µM (inactive). Moreover, the GI50 in the test on UACC-62 was 18.2 µM (inactive).

Consider `Fc1ccc(Oc2nc3ccccc3nc2-c2ccccc2)cc1`, for which the GI50 is 95.3 µM (inactive) in the test on BT-549; > 100 µM (inactive) with CAKI-1; > 100 µM (inactive) in the test with CCRF-CEM; > 100 µM (inactive) in the test on DU-145; > 100 µM (inactive) in the test with HCC 2998; > 100 µM (inactive) in the test on HCT-116. Besides, the GI50 in the test with HCT-15 is over 100 µM; in the test on Hs-578T it was 94.4 µM (inactive); in the test on MDA-MB-231, > 100 µM (inactive); in the test on MOLT-4 it was > 100 µM (inactive); in the test with NCI-H460, > 100 µM (inactive); in the test with NCI-H522, 71.8 µM (inactive). Moreover, the GI50 in the test on OVCAR-3 was > 100 µM (inactive); in the test on OVCAR-4, 36.5 µM (inactive); in the test on RPMI-8226 it was 81.7 µM (inactive); in the test with SK-MEL-5 it was > 100 µM (inactive); in the test with SR, 44.6 µM (inactive); with TK-10 it was > 100 µM (inactive). In the test with UACC-62, the GI50 is > 100 µM (inactive).

Regarding `Cc1ccc(C)n1-c1ccccc1C1C=CN(C(=O)OC(C)(C)C)C=C1`, the GI50 in the test with BT-549 was 32.7 µM (inactive); with CAKI-1, 33.3 µM (inactive); in the test on CCRF-CEM it was 35.3 µM (inactive); in the test on DU-145 it was 56.4 µM (inactive); in the test with HCC 2998, 17.3 µM (inactive); in the test with HCT-116, 15 µM (inactive). Moreover, the GI50 with HCT-15 is 20.6 µM; with Hs-578T, 37.8 µM (inactive); in the test with MDA-MB-231, 19.7 µM (inactive); in the test on MOLT-4, 21.7 µM (inactive); in the test on NCI-H460, 28.2 µM (inactive); in the test with NCI-H522, 16.6 µM (inactive). Also, the GI50 was 27.6 µM (inactive) in the test with NCI/ADR-RES; 17.8 µM (inactive) in the test with OVCAR-3; 71.4 µM (inactive) in the test on OVCAR-4; 20.4 µM (inactive) in the test on RPMI-8226; 33.4 µM (inactive) in the test with SK-MEL-5; 67.3 µM (inactive) with TK-10. Besides, the GI50 with UACC-62 was 25.8 µM (inactive).

With `Cc1ccc(-c2c(C#N)c(S)n(NS(=O)(=O)c3ccc(C)cc3)c(=O)c2C#N)cc1`, the GI50 with BT-549 is 16.6 µM (inactive); in the test on CAKI-1, 28 µM (inactive); with CCRF-CEM it was 8.02 µM (inactive); in the test with DU-145 it was 41.8 µM (inactive); in the test on HCC 2998, 5.19 µM (inactive); with HCT-116, 27 µM (inactive). The GI50 is 20.2 µM in the test with HCT-15; 29.6 µM (inactive) with MDA-MB-231; 24.2 µM (inactive) in the test with MOLT-4; 19.1 µM (inactive) with NCI-H522; 32.8 µM (inactive) in the test with NCI/ADR-RES; 34.7 µM (inactive) in the test on OVCAR-3. In addition, the GI50 in the test with OVCAR-4 is 15.5 µM (inactive); in the test with RPMI-8226, 24.7 µM (inactive); in the test with SK-MEL-5, 21 µM (inactive); in the test with SR it was 29.6 µM (inactive); with TK-10, 19.8 µM (inactive); in the test on UACC-62, 28.5 µM (inactive).

As for `CC1CC(=O)Nc2ccccc2N1C(=O)C1CC1` (stereo not given), the GI50 in the test with BT-549, in the test on CAKI-1, in the test on CCRF-CEM, in the test on DU-145, in the test with HCC 2998 and in the test with HCT-116 was > 100 µM (inactive) each time. In addition, the GI50 was over 100 µM in the test on HCT-15; > 100 µM (inactive) in the test with Hs-578T; > 100 µM (inactive) in the test on MDA-MB-231; > 100 µM (inactive) in the test with MOLT-4; > 100 µM (inactive) with NCI-H460; > 100 µM (inactive) in the test on NCI-H522. Also, the GI50 with OVCAR-3, with OVCAR-4, in the test with RPMI-8226, in the test on SK-MEL-5 and in the test on TK-10 was > 100 µM (inactive) in each case.

Consider `Cc1c(Cl)c(S(N)(=O)=O)cc2c1N=CNS2(=O)=O`, for which the GI50 with BT-549, in the test with CAKI-1, in the test on CCRF-CEM, in the test on DU-145, in the test on HCC 2998 and in the test with HCT-116 was > 100 µM (inactive) each time. Moreover, the GI50 with HCT-15 was over 100 µM; with Hs-578T, > 100 µM (inactive); in the test with MDA-MB-231, > 100 µM (inactive); in the test on MOLT-4, > 100 µM (inactive); in the test on NCI-H460 it was > 100 µM (inactive); in the test with NCI-H522 it was > 100 µM (inactive). Moreover, the GI50 in the test with NCI/ADR-RES, in the test on OVCAR-3, in the test with OVCAR-4, in the test with RPMI-8226, in the test on SK-MEL-5 and in the test on TK-10 was > 100 µM (inactive) throughout. For the same compound, the GI50 with UACC-62 was > 100 µM (inactive).

Consider `CC(C)(C)c1ccc(-c2nnc(-c3cc(C#N)cc(-c4nnc(-c5ccc(C(C)(C)C)cc5)o4)c3)o2)cc1`, for which the GI50 in the test on BT-549, in the test with CAKI-1, with CCRF-CEM, with DU-145, in the test on HCC 2998 and in the test on HCT-116 was > 100 µM (inactive) throughout. The GI50 in the test on HCT-15 was over 100 µM; in the test with Hs-578T, 33 µM (inactive); in the test with MDA-MB-231, > 100 µM (inactive); in the test on MOLT-4, > 100 µM (inactive); in the test with NCI-H460, > 100 µM (inactive); in the test on NCI-H522, > 100 µM (inactive). The GI50 with NCI/ADR-RES, in the test with OVCAR-3, in the test on OVCAR-4, in the test on RPMI-8226, in the test with SK-MEL-5 and in the test on TK-10 was > 100 µM (inactive) in each case. For the same compound, the GI50 in the test on UACC-62 was > 100 µM (inactive).

In the case of `CC12CC(=O)C3C(C(=O)C1)C32C` (stereo not given), the GI50 in the test with BT-549, in the test with CAKI-1, in the test with CCRF-CEM, with DU-145, in the test on HCC 2998 and in the test on HCT-116 was > 100 µM (inactive) throughout. Further, the GI50 in the test on HCT-15 was over 100 µM; with MDA-MB-231 it was > 100 µM (inactive); with MOLT-4, > 100 µM (inactive); in the test on NCI-H460, > 100 µM (inactive); in the test with NCI-H522 it was > 100 µM (inactive); with NCI/ADR-RES, > 100 µM (inactive). The GI50 in the test with OVCAR-3, in the test on OVCAR-4, in the test with RPMI-8226, with SK-MEL-5, in the test with SR and in the test on TK-10 was > 100 µM (inactive) in each case. In the test with UACC-62, the GI50 is > 100 µM (inactive).

Take `O=[N+]([O-])c1sc2ccc(Cl)cc2c1Nc1ccc(Cl)cc1`: the GI50 with BT-549 was > 100 µM (inactive); with CCRF-CEM it was > 100 µM (inactive); in the test on DU-145, > 100 µM (inactive); with HCC 2998 it was > 100 µM (inactive); with HCT-15 it was over 100 µM; in the test with Hs-578T, > 100 µM (inactive). In addition, the GI50 in the test on MDA-MB-231, in the test with MOLT-4, in the test on NCI-H460, in the test on NCI-H522, in the test on NCI/ADR-RES and with OVCAR-3 was > 100 µM (inactive) each time. Moreover, the GI50 in the test with OVCAR-4 was 2.55 µM (inactive); in the test with RPMI-8226, > 100 µM (inactive); with SK-MEL-5 it was > 100 µM (inactive); with TK-10, > 100 µM (inactive); in the test on UACC-62, > 100 µM (inactive).

On to `CON(C)C(=O)C(C)N(Cc1ccccc1)Cc1ccccc1` (stereo not given), for which the GI50 was 45.6 µM (inactive) in the test with BT-549; 50.8 µM (inactive) with CCRF-CEM; > 100 µM (inactive) in the test on DU-145; > 100 µM (inactive) in the test on HCC 2998; 50.2 µM (inactive) with HCT-116; 34.8 µM in the test with HCT-15. In addition, the GI50 with Hs-578T was 50 µM (inactive); with MOLT-4 it was 26.5 µM (inactive); with NCI-H460, 59 µM (inactive); with NCI/ADR-RES it was 45.5 µM (inactive); in the test with OVCAR-3, 88.3 µM (inactive); with RPMI-8226 it was 42.8 µM (inactive). Also, the GI50 in the test with SK-MEL-5 is 41.3 µM (inactive); in the test on SR, 69 µM (inactive); in the test on TK-10 it was > 100 µM (inactive); with UACC-62 it was 66.2 µM (inactive).

Take `COc1ccc(NC(=S)N/N=C\c2ccc(NC(C)=O)cc2)cc1`: the GI50 in the test with BT-549, with CAKI-1, with CCRF-CEM, in the test on DU-145, with HCC 2998 and in the test with HCT-116 was > 100 µM (inactive) each time. For the same compound, the GI50 with Hs-578T, in the test with MDA-MB-231, in the test with MOLT-4, in the test with NCI-H460, in the test with NCI-H522 and in the test with OVCAR-3 was > 100 µM (inactive) each time. The GI50 is > 100 µM (inactive) with OVCAR-4; > 100 µM (inactive) in the test on RPMI-8226; > 100 µM (inactive) in the test on SK-MEL-5; 14.2 µM (inactive) in the test with SR; > 100 µM (inactive) in the test with TK-10; > 100 µM (inactive) with UACC-62.
